From patent publication US10174083B2, “Aza-amino acid collagen compounds” (The Trustees of the University of Pennsylvania, priority 2016, dated 2019)

Test: Triple helix self-assembly by CD spectroscopy
Format: physicochemical
Method: Circular dichroism (CD) spectroscopy was used to evaluate self-assembly of the triple helix for each of our collagen model peptides. […] The data from CD thermal denaturation experiments were fitted to a two-state model, as previously described.
Purified peptides were incubated in PBS buffer for at least 24 hours. […] The data from CD thermal denaturation experiments were fitted to a two-state model as previously described.^12,13 The melting temperatures (Tm), at which 50% of the triple helix unfolds, are listed next to the peptides in FIG. 11.
Resulting peptide 5 was purified by HPLC and incubated at a concentration of 0.2 mM in PBS buffer (pH 7) for 24 h.
Multiple aza-Proline residues: Finally, we determined the number of stereodynamic center (i.e., AzProHypGly trimer) that can be incorporated into a collagen model peptide without perturbing the triple-helix formation.

triple helix formation / self-assembly: does not
Substance: (GPO)4
